According to patent publication US4208327A, “5-Aryl-1-(2-oxazolin-2-yl)-1H-1,4-benzodiazepines and related compounds” (G. D. Searle & Co., priority 1979, dated 1980):

What was measured:
[1] = Blockade of pentylenetetrazole induced clonic convulsions, intravenous; assay type: in vivo, mice; conditions: for ED50: Mus musculus, read-out: ED50 (95% confidence limits), anti-pentylenetetrazole effect
[2] = Comparison of durations of anti-conflict activity, drug crossover design, 16 hours after treatment; assay type: in vivo, squirrel monkey; conditions: molar equivalent dose, 16 hours later; for bar pressing rate during the conflict segments, % of pre-compound control levels: 14 squirrel monkeys, crossover
[3] = Rotarod test (muscle relaxant); assay type: in vivo, mice; conditions: intragastric; for ED50: Mus musculus, po, read-out: Rotarod ED50 (95% confidence limits)
Experimental: Using this procedure [after Dunham, N.W. and T.S. Miya, J. Amer. Pharm. […] The compounds were administered intragastrically to mice at varying time periods before being placed on the horizontal rotating (4.4 rpm) rod. Different groups of mice were assigned to each time period so that a subject was tested only once. A testing trial consisted of two opportunities to stay on the rod for one minute. ED50 's were calculated for each time period.

[4] = Potentiation of a sub-hypnotic dose of pentobarbital sodium (loss of righting reflex); assay type: in vivo, mice; conditions: for ED50 (95% confidence limits), potentiation of pentobarbital sodium (loss of righting reflex): pentobarbital sodium 20 mg/kg i.p.
Excerpt: In this procedure an ED50 for loss of righting reflex was established.

[5] = Blockade of pentylenetetrazole induced clonic convulsions, intragastric; assay type: in vivo, mice; conditions: for ED50: Mus musculus, po
Experimental: Exp. Ther., 108, 168 (1953)]. […] Both test compounds were administered intragastrically at specific time periods prior to the pentylenetetrazole challenge, and the ED50 for blockade of clonic convulsions was determined for each time period. Duration of activity is inferred from increases in the ED50 with time.

[6] = Multiple VI-FR conflict procedure (anti-conflict, anti-anxiety); assay type: in vivo, squirrel monkey; conditions: intragastric
[7] = intragastric, .25 hours, 15 min
[8] = 5 min, read-out: ED50 (95% confidence limits), anti-pentylenetetrazole effect, 5 min
[9] = 0.5 h, read-out: ED50 (95% confidence limits), anti-pentylenetetrazole effect, 30 min
[10] = read-out: ED50 (95% confidence limits), anti-pentylenetetrazole effect, 15 min
[11] = read-out: ED50 (95% confidence limits), anti-pentylenetetrazole effect, 1 hour
[12] = read-out: ED50 (95% confidence limits), anti-pentylenetetrazole effect, 2 hours
[13] = read-out: ED50 (95% confidence limits), anti-pentylenetetrazole effect, 4 hours
[14] = read-out: ED50 (95% confidence limits), anti-pentylenetetrazole effect, 8 hours

## Clc1ccc2c(c1)C(c1ccccc1Cl)=NCCN2C1=NCCO1 [Compound I, 7-chloro-5-(o-chlorophenyl)-2,3-dihydro-1-(2-oxazolin-2-yl)-1H-1,4-benzodiazepine]
[1]; 1 min, intravenous, 1 min
  ED50: 0.12 mg/kg
[1]; 0.5 h, intravenous, 30 min
  ED50: 0.23 mg/kg
[1]; intravenous, 15 min
  ED50: 0.18 mg/kg
[1]; intravenous, 1 hour
  ED50: 0.57 mg/kg
[1]; intravenous, 2 hours
  ED50: 1.44 mg/kg
[1]; intravenous, 4 hours
  ED50: 4.79 mg/kg
[1]; intravenous, 8 hours
  ED50: 17.8 mg/kg
  increase of ED50 over the 8 hour period: ~150 fold
[1]; intravenous
  time to peak activity: one
[1]; intravenous as well as intragastric route
  anti-convulsant effectiveness: effective as an anti-convulsant
[1]; intravenous, compared with diazepam
  duration of activity: shorter duration of activity
[2]
  duration of anti-anxiety (anti-conflict) action, in words: shorter duration of action of anti-anxiety effect
  bar pressing rate during the conflict segments, % of pre-compound control levels: 123%
[3]; 0.08 h, .08 hours
  ED50: 8.5 mg/kg
[3]; 0.5 h, .5 hours
  ED50: 8.9 mg/kg
[3]; 1.0 hours
  ED50: 24 mg/kg
[3]; 2.0 hours
  ED50: 74.9 mg/kg
[3]; .25 hours
  ED50: 2.9 mg/kg
[3]
  increase of rotarod ED50 from 15 minutes to 2 hours: 25 fold
  time to peak effect (rotarod): ≤ 15 min
[3]; compared with diazepam
  duration of action (rotarod): shorter duration of action
[3]; two hours
  loss of potency over the two hour period (rotarod): rapidly lost potency
[4]; compared with a standard benzodiazepine (diazepam)
  duration of sedative-hypnotic activity: shorter duration of sedative-hypnotic activity
[4]; intragastric, 1.0 hours
  ED50 (95% confidence limits), potentiation of pentobarbital sodium (loss of righting reflex): 24.1(17.9-32.4) mg/kg
[4]; intragastric, 2.0 hours
  ED50 (95% confidence limits), potentiation of pentobarbital sodium (loss of righting reflex): 39.1(28.1-54.3) mg/kg
[4]; [7]
  ED50 (95% confidence limits), potentiation of pentobarbital sodium (loss of righting reflex): 5.6(3.8-8.4) mg/kg
[4]; intragastric, two hour period
  increase of ED50 for potentiating pentobarbital sodium: about 7 fold
[5]
  time to peak anti-pentylenetetrazole activity: ≤ 15 min
  increase of ED50 by 8 hours: about 20 fold
[5]; 30 minutes
  change of ED50 in 30 minutes: nearly doubled
[5]; [8]
  ED50: 3.8 mg/kg
[5]; [9]
  ED50: 1.9 mg/kg
[5]; [10]
  ED50: 1 mg/kg
[5]; [11]
  ED50: 1.8 mg/kg
[5]; [12]
  ED50: 6.2 mg/kg
[5]; [13]
  ED50: 7.1 mg/kg
[5]; [14]
  ED50: 19.6 mg/kg
[5]; compared with diazepam
  duration of activity: much shorter duration of activity than Diazepam
[6]; 1.26 mg/kg, N 5
  Conflict (FR) bar pressing rate, percentage of average pre-compound control rate: 1519%
  Non-Conflict (VI) bar pressing rate, percentage of average pre-compound control rate: 46%
[6]; .07 mg/kg, N 5
  Conflict (FR) bar pressing rate, percentage of average pre-compound control rate: 281%
  Non-Conflict (VI) bar pressing rate, percentage of average pre-compound control rate: 100%
[6]; .07 to 1.26 mg/kg
  dose response of bar pressing rates during the conflict segment: clear dose responsive increase in bar pressing rates during the conflict segment
[6]; .126 mg/kg, N 6
  Conflict (FR) bar pressing rate, percentage of average pre-compound control rate: 514%
  Non-Conflict (VI) bar pressing rate, percentage of average pre-compound control rate: 101%
[6]; .404 mg/kg, N 6
  Conflict (FR) bar pressing rate, percentage of average pre-compound control rate: 1286%
  Non-Conflict (VI) bar pressing rate, percentage of average pre-compound control rate: 100%

## CN1C(=O)CN=C(c2ccccc2)c2cc(Cl)ccc21 [Diazepam, diazepam, reference compound]
[1]; 1 min, intravenous, 1 min
  ED50: 0.07 mg/kg
[1]; 0.5 h, intravenous, 30 min
  ED50: 0.23 mg/kg
[1]; intravenous, 15 min
  ED50: 0.26 mg/kg
[1]; intravenous, 1 hour
  ED50: 0.48 mg/kg
[1]; intravenous, 2 hours
  ED50: 0.75 mg/kg
[1]; intravenous, 4 hours
  ED50: 1.16 mg/kg
[1]; intravenous, 8 hours
  ED50: 1.78 mg/kg
  increase of ED50 over the 8 hour period: 25 fold
[2]
  duration of anti-anxiety (anti-conflict) action, in words: still produced pronounced anti-conflict effects
  bar pressing rate during the conflict segments, % of pre-compound control levels: 1265%
[4]; intragastric, 1.0 hours
  ED50 (95% confidence limits), potentiation of pentobarbital sodium (loss of righting reflex): 3.8(2.7-5.4) mg/kg
[4]; intragastric, 2.0 hours
  ED50 (95% confidence limits), potentiation of pentobarbital sodium (loss of righting reflex): 3.6(2.4-5.4) mg/kg
[4]; [7]
  ED50 (95% confidence limits), potentiation of pentobarbital sodium (loss of righting reflex): 4.1(2.7-6.3) mg/kg
[5]
  time to peak anti-pentylenetetrazole activity: ≤ 15 min
  increase of ED50 by 8 hours: 2 fold
[5]; [8]
  ED50: 1.1 mg/kg
[5]; [9]
  ED50: 0.8 mg/kg
[5]; [10]
  ED50: 0.9 mg/kg
[5]; [11]
  ED50: 0.8 mg/kg
[5]; [12]
  ED50: 0.7 mg/kg
[5]; [13]
  ED50: 1.6 mg/kg
[5]; [14]
  ED50: 1.4 mg/kg
